These results are taken from patent US20250213712A1, “ANTIBODY DRUG CONJUGATES COMPRISING CAMPTOTHECIN DERIVATIVES AND USES THEREOF” (priority 2023, published 2025).

Read-outs that look alike come from different tables or passages of the source.

What all share (assay): In vitro analysis of drugs (MTT cell viability)
In one assay the test system is SK-BR-3 cancer cells. It is filed as cell-based. Conditions: read-out: IC50 ± SD (nM) SK-BR3 (Breast). How it is done: (§1) The drugs (compounds D1-D6, D21, D25, D27, D28, D35-D37, D46, D47, D48, D49 and controls DXd, FL118 and SN38) were evaluated on NCI-N87, MDA-MB-468, SK-BR-3, HCT116, and JIMT-1 cancer cells. The cancer cells were seeded in 96-well plates at a density of 2,000 to 5,000 cells per well in 100 µL of medium and cultured for 22 to 26 hours. The series of compound was diluted by serial dilution of 1:4˜1:8 from 2 μM to 1 pM with DMSO. The diluted drugs were added to triplicate wells of 96-well plates at 50 μL per well. All assays were performed, by repeating up to 3 times and the results were obtained in up to 3 independent experiments. The plates were incubated for 6 days at 37° C. in a humidified 5% CO2-in-air atmosphere. Cell viability was determined by the MTT assay. The 15 μL of 3-(4,5-dimethylthiazol-2-yl)-2,5-diphenyltetrazolium bromide (MTT) dye dissolved in PBS buffer solution (5 mg/mL) was added to each well of the plates. The formazans formed by reduction of the MTT dye by mitochondrial oxidoreductases in the living cells were dissolved in DMSO, the formazans measured using the absorbance at 550 nm. IC50 (half maximal inhibitory concentration) was generated using a sigmoidal dose-response nonlinear regression curve fit (GraphPad software Inc.).

Another assay concerns MDA-MB-468 cancer cells. It is filed as cell-based. Particulars: read-out: IC50 ± SD (nM) MDA-MB-468 (TNBC). As to the method: as §1
The next assay concerns NCI-N87 cancer cells. The class given is cell-based, human. Particulars: read-out: IC50 ± SD (nM) NCI-N87 (Gastric). As to the method:
as §1

[1] abbreviates: Homo sapiens, MDA-MB-468, 144 h.
[2] abbreviates: Drugs, expression level 21.8 × 10^5, 6 days, MTT.
The mark [3] stands for this setting: Drugs, expression level 0.003 × 10^5, 6 days, MTT.
[4] abbreviates: Drugs, expression level 13.2 × 10^5, 6 days, MTT.

As for `CC[C@@]1(O)C(=O)OCc2c1cc1n(c2=O)Cc2c-1nc1cc3c(cc1c2-c1ccc(O)cc1)OCO3` [Compound D21], the half-maximal inhibitory concentration (IC50) (as a rule, the midpoint of a concentration-inhibition curve) in the assay on SK-BR-3 cancer cells (Homo sapiens, SK-BR-3, 144 h) worked out at 0.61 ± 0.03 nM; in the assay with MDA-MB-468 cancer cells (setting [1]), 0.38 ± 0.14 nM; in the assay with NCI-N87 cancer cells (Homo sapiens, NCI-N87, 144 h) it was 1.49 ± 0.53 nM.
Turning to `CC[C@@]1(O)C(=O)OCc2c1cc1n(c2=O)Cc2c-1nc1cc(F)c(O)c3c1c2C(O)CC3` (some centres unmarked) [Compound D25], the IC50 is 2.81 ± 0.43 nM in the assay on SK-BR-3 cancer cells (Homo sapiens, SK-BR-3, 144 h); 4.49 ± 0.76 nM in the assay on MDA-MB-468 cancer cells (setting [1]); 27.6 ± 8.26 nM in the assay with NCI-N87 cancer cells (Homo sapiens, NCI-N87, 144 h).
As for `CC[C@@]1(O)C(=O)OCc2c1cc1n(c2=O)Cc2c-1nc1cc(F)c(O)cc1c2-c1ccco1` [Compound D27], the IC50 with SK-BR-3 cancer cells (Homo sapiens, SK-BR-3, 144 h) was 1.79 ± 0.34 nM; in the assay on MDA-MB-468 cancer cells (setting [1]), 0.86 ± 0.11 nM; in the assay with NCI-N87 cancer cells (Homo sapiens, NCI-N87, 144 h), 6.52 ± 0.45 nM.
In the case of `CC[C@@]1(O)C(=O)OCc2c1cc1n(c2=O)Cc2c-1nc1cc(F)c(O)cc1c2-c1ccoc1` [Compound D28], the half-inhibitory concentration (IC50) was determined as 5.31 ± 0.55 nM in the assay with SK-BR-3 cancer cells (Homo sapiens, SK-BR-3, 144 h); 2.45 ± 0.37 nM in the assay with MDA-MB-468 cancer cells (setting [1]); 12.7 ± 4.2 nM with NCI-N87 cancer cells (Homo sapiens, NCI-N87, 144 h).
Turning to `CC[C@@]1(O)C(=O)OCc2c1cc1n(c2=O)Cc2c-1nc1cc3c(cc1c2CCc1ccc(O)cc1)OCO3` [Compound D35], the IC50 with MDA-MB-468 cancer cells (setting [1]) is 1.71 nM; in the assay on NCI-N87 cancer cells (Homo sapiens, NCI-N87, 144 h) it was 5.57 nM.
Turning to `CC[C@@]1(O)C(=O)OCc2c1cc1n(c2=O)Cc2c-1nc1cc3c(cc1c2-c1cccc(O)c1)OCO3` [Compound D36], the half-inhibitory concentration (IC50) in the assay on SK-BR-3 cancer cells (Homo sapiens, SK-BR-3, 144 h) worked out at 0.91 ± 0.13 nM; in the assay with MDA-MB-468 cancer cells (setting [1]) it was 0.52 ± 0.29 nM; in the assay with NCI-N87 cancer cells (Homo sapiens, NCI-N87, 144 h), 1.19 ± 0.02 nM.
The like results for `CC[C@@]1(O)C(=O)OCc2c1cc1n(c2=O)Cc2c-1nc1cc(F)c(C)cc1c2-c1ccc(O)cc1` [Compound D37] were, in that order, 0.89 ± 0.06 nM, 0.36 ± 0.23 nM and 1.19 ± 0.25 nM.
As for `CC[C@@]1(O)C(=O)OCc2c1cc1n(c2=O)Cc2c-1nc1cc(F)c(C)c3c1c2[C@@H](NCc1ccc(O)cc1)CC3` [Compound D46], the IC50 in the assay on SK-BR-3 cancer cells (Homo sapiens, SK-BR-3, 144 h) came to 1.73 ± 0.19 nM; in the assay with MDA-MB-468 cancer cells (setting [1]), 0.92 ± 0.12 nM; in the assay with NCI-N87 cancer cells (Homo sapiens, NCI-N87, 144 h) it was 2.2 ± 0.13 nM.
Consider `CC[C@@]1(O)C(=O)OCc2c1cc1n(c2=O)Cc2c-1nc1cc(F)c(C)c3c1c2[C@@H](NCCc1ccc(O)cc1)CC3` [Compound D47], for which the 50% inhibitory concentration (IC50) in the assay with SK-BR-3 cancer cells (Homo sapiens, SK-BR-3, 144 h) turned out to be 1.8 nM; with MDA-MB-468 cancer cells (setting [1]), 0.96 nM; in the assay with NCI-N87 cancer cells (Homo sapiens, NCI-N87, 144 h), 2.13 nM.
As to `CC[C@@]1(O)C(=O)OCc2c1cc1n(c2=O)Cc2c-1nc1cc(F)c(C)c3c1c2[C@@H](NC(=O)C(C)(O)C(F)(F)F)CC3` (some centres unmarked) [Compound D48], the IC50 was found to be 1.06 ± 0.15 nM in the assay with SK-BR-3 cancer cells (Homo sapiens, SK-BR-3, 144 h); 0.4 ± 0.11 nM with MDA-MB-468 cancer cells (setting [1]); 1.59 ± 0.09 nM with NCI-N87 cancer cells (Homo sapiens, NCI-N87, 144 h).
With `CC[C@@]1(O)C(=O)OCc2c1cc1n(c2=O)Cc2c-1nc1cc(F)c(C)c3c1c2[C@@H](NC(=O)Cc1ccc(O)cc1)CC3` [Compound D49], the IC50 was 1.79 ± 0.24 nM in the assay with SK-BR-3 cancer cells (Homo sapiens, SK-BR-3, 144 h); 0.83 ± 0.01 nM with MDA-MB-468 cancer cells (setting [1]); 6.11 ± 0.19 nM in the assay with NCI-N87 cancer cells (Homo sapiens, NCI-N87, 144 h).
`CC[C@@]1(O)C(=O)OCc2c1cc1n(c2=O)Cc2c-1nc1cc(F)c(C)c3c1c2[C@@H](NC(=O)CO)CC3` [DXd, reference compound]: the values for the concentration for half-maximal inhibition (IC50) in the assay on SK-BR-3 cancer cells (setting [2]), in the assay with MDA-MB-468 cancer cells (setting [3]) and in the assay on NCI-N87 cancer cells (setting [4]) were 1.87 ± 0.49 nM, 0.82 ± 0.3 nM and 7.12 ± 1.75 nM, respectively.
As for `CC[C@@]1(O)C(=O)OCc2c1cc1n(c2=O)Cc2cc3cc4c(cc3nc2-1)OCO4` [FL118, reference compound], the IC50 is 0.86 ± 0.1 nM in the assay on SK-BR-3 cancer cells (setting [2]), 0.37 ± 0.17 nM in the assay on MDA-MB-468 cancer cells (setting [3]) and 1.04 ± 0.18 nM in the assay with NCI-N87 cancer cells (setting [4]).
The like results for `CCc1c2c(nc3ccc(O)cc13)-c1cc3c(c(=O)n1C2)COC(=O)[C@]3(O)CC` [SN38, reference compound] were, in that order, 1.82 ± 1.21 nM, 0.68 ± 0.14 nM and 6.52 ± 1.55 nM.
